Reference: the NIST ThermoML archive (doi:10.1016/j.jct.2011.08.016)
± gives the expanded uncertainty stated by the source.

Assay: xn = mol fraction of the nth substance listed
Conditions: Liquid, Vibrating tube method

CCCCCCCCCC [decane] + CCCCCCCC
Conditions | mass density [kg/m3]
343.11 K, 1000 kPa, x2 = 0.0616 | 691.23 ± 0.41
343.11 K, 2000 kPa, x2 = 0.0616 | 692.25 ± 0.42
343.11 K, 3000 kPa, x2 = 0.0616 | 693.27 ± 0.42
343.11 K, 4000 kPa, x2 = 0.0616 | 694.28 ± 0.43
343.11 K, 5000 kPa, x2 = 0.0616 | 695.27 ± 0.43
343.11 K, 6000 kPa, x2 = 0.0616 | 696.28 ± 0.44
343.11 K, 7000 kPa, x2 = 0.0616 | 697.25 ± 0.44
343.11 K, 8000 kPa, x2 = 0.0616 | 698.24 ± 0.45
343.11 K, 9000 kPa, x2 = 0.0616 | 699.21 ± 0.45
343.11 K, 10000 kPa, x2 = 0.0616 | 700.15 ± 0.46
343.11 K, 10990 kPa, x2 = 0.0616 | 701.09 ± 0.46
343.11 K, 12000 kPa, x2 = 0.0616 | 702.04 ± 0.47
343.11 K, 13000 kPa, x2 = 0.0616 | 702.94 ± 0.47
343.11 K, 14000 kPa, x2 = 0.0616 | 703.83 ± 0.48
343.11 K, 15000 kPa, x2 = 0.0616 | 704.71 ± 0.49
343.11 K, 16000 kPa, x2 = 0.0616 | 705.59 ± 0.49
343.11 K, 17000 kPa, x2 = 0.0616 | 706.44 ± 0.5
343.11 K, 18000 kPa, x2 = 0.0616 | 707.29 ± 0.5
343.11 K, 19000 kPa, x2 = 0.0616 | 708.13 ± 0.51
343.11 K, 20000 kPa, x2 = 0.0616 | 708.97 ± 0.52
343.11 K, 21000 kPa, x2 = 0.0616 | 709.77 ± 0.52
343.11 K, 22000 kPa, x2 = 0.0616 | 710.54 ± 0.53
343.11 K, 23000 kPa, x2 = 0.0616 | 711.34 ± 0.53
343.11 K, 24000 kPa, x2 = 0.0616 | 712.11 ± 0.54
343.11 K, 25000 kPa, x2 = 0.0616 | 712.86 ± 0.55
343.12 K, 1000 kPa, x2 = 0.2801 | 686 ± 0.42
343.12 K, 1000 kPa, x2 = 0.5314 | 678.98 ± 0.42
343.12 K, 1000 kPa, x2 = 0.7736 | 671.23 ± 0.42
343.12 K, 2000 kPa, x2 = 0.2801 | 686.96 ± 0.42
343.12 K, 2000 kPa, x2 = 0.5314 | 680.05 ± 0.42
343.12 K, 2000 kPa, x2 = 0.7736 | 672.36 ± 0.43
343.12 K, 3000 kPa, x2 = 0.2801 | 688 ± 0.42
343.12 K, 3000 kPa, x2 = 0.5314 | 681.13 ± 0.43
343.12 K, 3000 kPa, x2 = 0.7736 | 673.44 ± 0.43
343.12 K, 4000 kPa, x2 = 0.2801 | 689.01 ± 0.43
343.12 K, 4000 kPa, x2 = 0.5314 | 682.2 ± 0.43
343.12 K, 4000 kPa, x2 = 0.7736 | 674.54 ± 0.44
343.12 K, 5000 kPa, x2 = 0.2801 | 690.04 ± 0.43
343.12 K, 5000 kPa, x2 = 0.5314 | 683.26 ± 0.44
343.12 K, 5000 kPa, x2 = 0.7736 | 675.64 ± 0.44
343.12 K, 6000 kPa, x2 = 0.2801 | 691.09 ± 0.44
343.12 K, 6000 kPa, x2 = 0.5314 | 684.32 ± 0.44
343.12 K, 6000 kPa, x2 = 0.7736 | 676.76 ± 0.45
343.12 K, 7000 kPa, x2 = 0.2801 | 692.03 ± 0.44
343.12 K, 7000 kPa, x2 = 0.5314 | 685.36 ± 0.45
343.12 K, 7000 kPa, x2 = 0.7736 | 677.83 ± 0.45
343.12 K, 8000 kPa, x2 = 0.2801 | 693.02 ± 0.45
343.12 K, 8000 kPa, x2 = 0.5314 | 686.38 ± 0.45
343.12 K, 8000 kPa, x2 = 0.7736 | 678.88 ± 0.46
343.12 K, 9000 kPa, x2 = 0.2801 | 694 ± 0.45
343.12 K, 9000 kPa, x2 = 0.5314 | 687.39 ± 0.46
343.12 K, 9000 kPa, x2 = 0.7736 | 679.92 ± 0.46
343.12 K, 10000 kPa, x2 = 0.2801 | 694.95 ± 0.46
343.12 K, 10000 kPa, x2 = 0.5314 | 688.38 ± 0.46
343.12 K, 10000 kPa, x2 = 0.7736 | 680.93 ± 0.47
343.12 K, 10990 kPa, x2 = 0.2801 | 695.95 ± 0.47
343.12 K, 10990 kPa, x2 = 0.5314 | 689.37 ± 0.47
343.12 K, 10990 kPa, x2 = 0.7736 | 681.98 ± 0.48
343.12 K, 12000 kPa, x2 = 0.2801 | 696.9 ± 0.47
343.12 K, 12000 kPa, x2 = 0.5314 | 690.34 ± 0.48
343.12 K, 12000 kPa, x2 = 0.7736 | 682.98 ± 0.48
343.12 K, 13000 kPa, x2 = 0.2801 | 697.84 ± 0.48
343.12 K, 13000 kPa, x2 = 0.5314 | 691.29 ± 0.48
343.12 K, 13000 kPa, x2 = 0.7736 | 683.94 ± 0.49
343.12 K, 14000 kPa, x2 = 0.2801 | 698.78 ± 0.48
343.12 K, 14000 kPa, x2 = 0.5314 | 692.24 ± 0.49
343.12 K, 14000 kPa, x2 = 0.7736 | 684.91 ± 0.49
343.12 K, 15000 kPa, x2 = 0.2801 | 699.72 ± 0.49
343.12 K, 15000 kPa, x2 = 0.5314 | 693.17 ± 0.49
343.12 K, 15000 kPa, x2 = 0.7736 | 685.89 ± 0.5
343.12 K, 16000 kPa, x2 = 0.2801 | 700.6 ± 0.5
343.12 K, 16000 kPa, x2 = 0.5314 | 694.09 ± 0.5
343.12 K, 16000 kPa, x2 = 0.7736 | 686.84 ± 0.51
343.12 K, 17000 kPa, x2 = 0.2801 | 701.51 ± 0.5
343.12 K, 17000 kPa, x2 = 0.5314 | 695 ± 0.51
343.12 K, 17000 kPa, x2 = 0.7736 | 687.8 ± 0.51
343.12 K, 18000 kPa, x2 = 0.2801 | 702.35 ± 0.51
343.12 K, 18000 kPa, x2 = 0.5314 | 695.89 ± 0.51
343.12 K, 18000 kPa, x2 = 0.7736 | 688.72 ± 0.52
343.12 K, 19000 kPa, x2 = 0.2801 | 703.17 ± 0.51
343.12 K, 19000 kPa, x2 = 0.5314 | 696.76 ± 0.52
343.12 K, 19000 kPa, x2 = 0.7736 | 689.61 ± 0.53
343.12 K, 20000 kPa, x2 = 0.2801 | 704.02 ± 0.52
343.12 K, 20000 kPa, x2 = 0.5314 | 697.62 ± 0.53
343.12 K, 20000 kPa, x2 = 0.7736 | 690.48 ± 0.54
343.12 K, 21000 kPa, x2 = 0.2801 | 704.83 ± 0.53
343.12 K, 21000 kPa, x2 = 0.5314 | 698.47 ± 0.53
343.12 K, 21000 kPa, x2 = 0.7736 | 691.35 ± 0.54
343.12 K, 22000 kPa, x2 = 0.2801 | 705.63 ± 0.53
343.12 K, 22000 kPa, x2 = 0.5314 | 699.29 ± 0.54
343.12 K, 22000 kPa, x2 = 0.7736 | 692.2 ± 0.55
343.12 K, 23000 kPa, x2 = 0.2801 | 706.41 ± 0.54
343.12 K, 23000 kPa, x2 = 0.5314 | 700.11 ± 0.55
